≈ marks a conversion by molar mass, not a printed value.
How the values were obtained:
Type in all cases: functional
Escherichia coli [1] = assay: microbe, parasite or virus in culture; conditions: ATCC 25922, 5 h
Description: Inhibition of cell division in penicillin-susceptible Escherichia coli ATCC 25922 assessed as filamentation after 5 hrs by phase contrast microscopy

Streptococcus pyogenes [2] = assay: Antibacterial activity against penicillin-susceptible Streptococcus pyogenes clinical isolates after 24 hrs by broth microdilution method
Staphylococcus aureus [3] = assay: microbe, parasite or virus in culture; conditions: ATCC 25923, 5 h
Description: Inhibition of cell division in penicillin-susceptible Staphylococcus aureus ATCC 25923 assessed as ballooning after 5 hrs by phase contrast microscopy

Bacillus subtilis [4] = assay: microbe, parasite or virus in culture; conditions: ATCC 9372, 24 h
Description: Antibacterial activity against penicillin-susceptible Bacillus subtilis ATCC 9372 after 24 hrs by broth microdilution method

Pseudomonas aeruginosa [5] = assay: microbe, parasite or virus in culture; conditions: ATCC 27853, 5 h
Description: Inhibition of cell division in penicillin-susceptible Pseudomonas aeruginosa ATCC 27853 assessed as filamentation after 5 hrs by phase contrast microscopy

Escherichia coli [6] = assay: microbe, parasite or virus in culture; conditions: ATCC 25922, 24 h
Description: Antibacterial activity against penicillin-susceptible Escherichia coli ATCC 25922 after 24 hrs by broth microdilution method

[7] = test system: Staphylococcus epidermidis; assay: Antibacterial activity against penicillin-resistant Staphylococcus epidermidis clinical isolates after 24 hrs by broth microdilution method
Streptococcus pyogenes [8] = assay: Antibacterial activity against penicillin-resistant Streptococcus pyogenes clinical isolates after 24 hrs by broth microdilution method
Staphylococcus aureus [9] = assay: microbe, parasite or virus in culture; conditions: ATCC 25923, 24 h
Description: Antibacterial activity against penicillin-susceptible Staphylococcus aureus ATCC 25923 after 24 hrs by broth microdilution method

Bacillus subtilis [10] = assay: microbe, parasite or virus in culture; conditions: ATCC 9372, 5 h
Description: Inhibition of cell division in penicillin-susceptible Bacillus subtilis ATCC 9372 assessed as filamentation after 5 hrs by phase contrast microscopy

Pseudomonas aeruginosa [11] = assay: microbe, parasite or virus in culture; conditions: ATCC 27853, 24 h
Staphylococcus aureus [12] = assay: Antibacterial activity against penicillin-resistant Staphylococcus aureus clinical isolates after 24 hrs by broth microdilution method
Staphylococcus aureus [13] = assay: microbe, parasite or virus in culture; conditions: ATCC 29213, 24 h
Description: Antibacterial activity against methicillin-resistant Staphylococcus aureus ATCC 29213 after 24 hrs by broth microdilution method

Structure (SMILES)	MIC (Escherichia coli [1]) [µg/mL]	MIC (Streptococcus pyogenes [2]) [µg/mL]	MIC (Staphylococcus aureus [3]) [µg/mL]	MIC (Bacillus subtilis [4]) [µg/mL]	MIC (Pseudomonas aeruginosa [5]) [µg/mL]	MIC (Escherichia coli [6]) [µg/mL]	MIC [7] [µg/mL]	MIC (Streptococcus pyogenes [8]) [µg/mL]	MIC (Staphylococcus aureus [9]) [µg/mL]	MIC (Bacillus subtilis [10]) [µg/mL]	MIC (Pseudomonas aeruginosa [11]) [µg/mL]	MIC (Staphylococcus aureus [12]) [µg/mL]	MIC (Staphylococcus aureus [13]) [µg/mL]
COc1ccccc1/C=C/C(=O)n1c(C)nc2ccccc21	128 (≈ 438 µM)	128 (≈ 438 µM)	> 128	128 (≈ 438 µM)	128 (≈ 438 µM)	128 (≈ 438 µM)	16 (≈ 54.7 µM)	> 128	64 (≈ 219 µM)	> 128	128 (≈ 438 µM)	64 (≈ 219 µM)	128 (≈ 438 µM)
CCCCNC(=O)/C=C/c1ccc([N+](=O)[O-])cc1	> 128	–	> 128	> 128	> 128	> 128	–	–	> 128	> 128	> 128	> 128	> 128
COc1ccccc1/C=C/C(=O)N1CCN(C(c2ccccc2)c2ccc(Cl)cc2)CC1 (centres undefined)	> 128	> 128	64 (≈ 143 µM)	> 128	> 128	> 128	> 128	–	> 128	> 128	> 128	> 128	> 128
O=C(/C=C/c1ccc(Cl)cc1Cl)N1CCN(C(c2ccccc2)c2ccc(Cl)cc2)CC1 (centres undefined)	> 128	> 128	64 (≈ 132 µM)	> 128	> 128	> 128	> 128	–	> 128	64 (≈ 132 µM)	> 128	> 128	> 128
COc1ccc(/C=C/C(=O)N(C)C)cc1OC	128 (≈ 544 µM)	> 128	8 (≈ 34 µM)	128 (≈ 544 µM)	> 128	128 (≈ 544 µM)	> 128	–	32 (≈ 136 µM)	> 128	128 (≈ 544 µM)	64 (≈ 272 µM)	> 128
O=C(O)/C=C/c1ccccc1 [CINNAMIC ACID]	> 128	> 128	> 128	> 128	> 128	> 128	> 128	–	> 128	> 128	> 128	> 128	> 128
CCN(CC)C(=O)/C=C/c1ccc(Cl)cc1Cl	> 128	128 (≈ 470 µM)	128 (≈ 470 µM)	> 128	> 128	> 128	32 (≈ 118 µM)	128 (≈ 470 µM)	> 128	> 128	128 (≈ 470 µM)	> 128	128 (≈ 470 µM)
COc1ccc(/C=C/C(=O)n2c(C)nc3ccccc32)cc1	> 128	> 128	> 128	128 (≈ 438 µM)	> 128	128 (≈ 438 µM)	32 (≈ 109 µM)	–	128 (≈ 438 µM)	> 128	128 (≈ 438 µM)	64 (≈ 219 µM)	128 (≈ 438 µM)
C#CCNC(=O)/C=C/c1ccc(OC)c(OC)c1	> 128	–	> 128	> 128	> 128	> 128	–	–	> 128	> 128	> 128	> 128	> 128
CCCCNC(=O)/C=C/c1ccc(Cl)cc1Cl [N-BUTYL-3-(2,4-DICHLOROPHENYL)ACRYLAMIDE]	> 128	64 (≈ 235 µM)	> 128	> 128	> 128	> 128	> 128	128 (≈ 470 µM)	> 128	> 128	128 (≈ 470 µM)	> 128	> 128
COc1ccc(/C=C/C(=O)Nc2cccnc2)cc1	128 (≈ 503 µM)	> 128	4 (≈ 15.7 µM)	128 (≈ 503 µM)	128 (≈ 503 µM)	128 (≈ 503 µM)	128 (≈ 503 µM)	128 (≈ 503 µM)	32 (≈ 126 µM)	> 128	128 (≈ 503 µM)	64 (≈ 252 µM)	> 128
COc1cc(/C=C/C(=O)N2CCOCC2)cc(OC)c1OC	128 (≈ 416 µM)	> 128	16 (≈ 52.1 µM)	128 (≈ 416 µM)	> 128	128 (≈ 416 µM)	> 128	–	64 (≈ 208 µM)	128 (≈ 416 µM)	> 128	> 128	128 (≈ 416 µM)
COc1cc(/C=C/C(=O)CC(=O)/C=C/c2ccc(O)c(OC)c2)ccc1O [CURCUMIN]	> 128	> 128	> 128	32 (≈ 86.9 µM)	–	> 128	–	–	> 128	16 (≈ 43.4 µM)	> 128	> 128	> 128
CC(C)NC(=O)/C=C/c1ccc(Cl)cc1Cl [3-(2,4-DICHLOROPHENYL)-N-ISOPROPYLACRYLAMIDE]	> 128	64 (≈ 248 µM)	32 (≈ 124 µM)	> 128	> 128	128 (≈ 496 µM)	> 128	> 128	> 128	32 (≈ 124 µM)	128 (≈ 496 µM)	> 128	> 128
Cc1nccn1-c1cc(NC(=O)/C=C/c2ccc([N+](=O)[O-])cc2)cc(C(F)(F)F)c1	> 128	32 (≈ 76.9 µM)	32 (≈ 76.9 µM)	128 (≈ 307 µM)	128 (≈ 307 µM)	> 128	> 128	128 (≈ 307 µM)	128 (≈ 307 µM)	128 (≈ 307 µM)	> 128	> 128	> 128
CCCCNC(=O)/C=C/c1ccc(OC)c(OC)c1	> 128	–	> 128	> 128	> 128	> 128	–	–	> 128	> 128	> 128	> 128	> 128
CCCCNC(=O)/C=C/c1ccc(C#N)cc1	> 128	–	> 128	> 128	> 128	> 128	–	–	> 128	> 128	> 128	> 128	> 128
COc1cc(/C=C/C(=O)N(C)C)cc(OC)c1OC	128 (≈ 482 µM)	> 128	> 128	128 (≈ 482 µM)	128 (≈ 482 µM)	128 (≈ 482 µM)	> 128	–	> 128	> 128	128 (≈ 482 µM)	> 128	> 128
COc1ccc(/C=C/C(=O)N2CCOCC2)cc1OC	128 (≈ 462 µM)	> 128	> 128	128 (≈ 462 µM)	> 128	128 (≈ 462 µM)	> 128	–	> 128	> 128	> 128	> 128	> 128
CCN(CC)C(=O)/C=C/c1cc(OC)c(OC)c(OC)c1	128 (≈ 436 µM)	> 128	32 (≈ 109 µM)	128 (≈ 436 µM)	128 (≈ 436 µM)	128 (≈ 436 µM)	> 128	–	64 (≈ 218 µM)	128 (≈ 436 µM)	128 (≈ 436 µM)	64 (≈ 218 µM)	> 128
CC(C)NC(=O)/C=C/c1ccc([N+](=O)[O-])cc1	> 128	–	> 128	> 128	> 128	> 128	–	–	> 128	> 128	> 128	> 128	> 128
C#CCNC(=O)/C=C/c1ccc([N+](=O)[O-])cc1	> 128	–	> 128	> 128	> 128	> 128	–	–	> 128	> 128	> 128	> 128	> 128
O=C(/C=C/c1ccccc1Cl)N1CCN(C(c2ccccc2)c2ccc(Cl)cc2)CC1 (centres undefined)	> 128	> 128	> 128	> 128	128 (≈ 284 µM)	> 128	> 128	–	> 128	> 128	> 128	> 128	> 128
O=C(/C=C/c1ccc(F)cc1)N1CCOCC1	128 (≈ 544 µM)	> 128	> 128	128 (≈ 544 µM)	128 (≈ 544 µM)	128 (≈ 544 µM)	> 128	–	> 128	128 (≈ 544 µM)	128 (≈ 544 µM)	> 128	> 128
CCN(CC)C(=O)/C=C/c1ccc(OC)c(OC)c1	128 (≈ 486 µM)	> 128	64 (≈ 243 µM)	128 (≈ 486 µM)	128 (≈ 486 µM)	128 (≈ 486 µM)	> 128	–	> 128	128 (≈ 486 µM)	> 128	> 128	> 128
CCCNC(=O)/C=C/c1ccc([N+](=O)[O-])cc1	> 128	–	> 128	> 128	> 128	> 128	–	–	> 128	> 128	> 128	> 128	> 128
O=C(O)c1cn(C2CC2)c2cc(N3CCNCC3)c(F)cc2c1=O [CIPROFLOXACIN]	> 128	8 (≈ 24.1 µM)	> 128	8 (≈ 24.1 µM)	> 128	–	> 128	> 128	8 (≈ 24.1 µM)	> 128	4 (≈ 12.1 µM)	8 (≈ 24.1 µM)	4 (≈ 12.1 µM)
